The conditions of series [1]: mefloquine enantiomers; cited from earlier work.
In series [2] the test system is retina of C57BL/6 mice. Briefly: Subretinal co-injection of AAV GFP vector and HCQ in mice, cSLO fundus autofluorescence. The format is in vivo, mouse. The following applies: AAV 1×10^8 genome copies with 18.75 uM HCQ, 4 and 8 weeks post-injection. How it is done:
(§1) Subretinal injections. 7 week old female C57BL/6 mice were subretinally injected with 1.2 μL vector suspension (1×10^8 genome copies). The vector was prepared with a 3.125 uM or 18.75 uM final concentration of HCQ with control preparations without any HCQ. Animals were injected with an AAV+HCQ preparation in one eye and AAV only in the paired eye.
Confocal scanning laser ophthalmoscope (cSLO) analysis. Standardized mouse autofluorescence (AF) imaging using a cSLO (Spectralis HRA, Heidelberg Engineering) was performed in all animals according to previously published protocol. All images were recorded using the 55° lens of the Spectralis HRA at 2, 4 and 8 weeks post-injection. Images were recorded using a standardized signal detector sensitivity. For quantitative analysis of fundus AF, the mean grey level was measured within a ring-shaped area located at radii between 350 and 860 pixels from the optic disc centre using ImageJ software (NIH).

For series [3], the system named is Primary NHP RPE cells. Briefly: HCQ effect on AAV transduction in primary NHP RPE cells, GFP qPCR. The format is cell-based, Rhesus macaque (M. mullata). The following applies: 18.75 μM HCQ, 3 days post-transduction, normalized to β-actin, N=3, p=0.0253. How it is done:
(§2) Harvesting non-human primate (NHP) retinal pigment epithelium (RPE) cells. After enucleation, the cornea and lens were removed under direct visualization with a surgical microscope. Radial incisions were made towards the posterior pole to flatten the eyecup. The retina was removed by blunt dissection and the remaining eyecup was placed in media and stored on ice until the RPE cells were removed. RPE cells were detached using the TrypLE cell dissociation reagent and were cultured at 37° C.
(§3) Cell culture. Primary NHP RPE cells were seeded into a 12-well plate. 24 hr after seeding, the cells were incubated in media with 3.125 uM or 18.75 uM of HCQ for 1 hr prior to transduction with 2×10^9 genome copies per well. Cells were imaged 3 days post-transduction.
RNA & protein extraction and cDNA synthesis. The primary NHP RPE were harvested for RNA extraction 3-days post-AAV transduction with HCQ. Total RNA was extracted using the RNeasy Mini Kit (Qiagen) according to the manufacturer's instructions. Copy DNA was synthesised using 850-1500 ng of RNA using the Superscript III Kit (Invitrogen) with an oligo dT primer.
qPCR analysis. qPCR was carried out using TaqMan probes against GFP and β-actin in a CFX Connect thermal cycler (BioRad). GFP expression was normalized to β-actin and represented as a fold change to transduced cells incubated without HCQ.

Series [4] relates to retina of C57BL/6 mice. The series is described as follows: Subretinal co-injection of AAV GFP vector and HCQ in mice, OCT retinal thickness. The settings on record: subretinal injection suspension with 3.125 uM or 18.75 uM HCQ, OCT at 2, 4 and 8 weeks. The format is in vivo, mouse. How it is done: as §1
OCT analysis. Animals were subject to wide-field spectral-domain optical coherence tomography (OCT, Spectralis HRA, Heidelberg Engineering) at 2, 4 and 8 weeks post-injection. Mice were scanned using a 55° lens and 8 radial sections were taken with a real-time average process of 25 frames. The total retinal thickness and the outer limiting membrane (OLM) thickness were manually measured on alternate radial sections using a calliper.

A further series relates to human retinal explants. Briefly: HCQ effect on AAV transduction in human retinal explants, mean grey value (GFP fluorescence). The settings on record: 3.125 uM HCQ, 1×10^9 genome copies rAAV2.CAG.GFP.WPRE.pA, imaged every 2 days for 11 days, n=6, p=0.0213. The format is cell-based. How it is done:
Harvesting tissue. Human retina fragments was extracted during routine retinal surgery in which a retinectomy was required (ethics approved). Fragments of retina were removed via a 23G sclerostomy with vitrectomy cutter (at minimal cut rate) and manual aspiration.
Culturing explants. Within 1 hr of tissue collection, retinal fragments were transferred using a 3 mL Pasteur pipette into individual organotypic culture inserts (BD Falcon), which were in turn placed within a 24-well plate. 400 uL of media was placed beneath the insert and 100 uL of media within the insert. 24 hr after culturing the retinal explants, the media was replaced with media containing 3.125 uM or 18.75 uM of HCQ. The explants were incubated in the HCQ medium for 1 hour prior to transduction with 1×10^9 genome copies of rAAV2.CAG.GFP.WPRE.pA vector. The explants were imaged every 2 days for 11 days and the mean grey value (representative of GFP fluorescence) of the explants was measured using ImageJ software (FIG. 3a).

A further series has as its system Mouse retinas. The series is described as follows: Subretinal co-injection of AAV GFP vector and HCQ in mice, GFP western blot of retinas. The class given is in vivo. The settings on record: 18.75 μM HCQ. How it is done:
as §1
Protein extraction. Mouse retinas were thawed on ice and lysed in 1× RIPA buffer+protease inhibitors. The retinas were homogenised using a hand-held homogeniser and incubated on ice for 30 mins. The samples were centrifuged at 17,000×g at 4° C. for 20 mins. The supernatant was transferred to a new tube and kept on ice.
Western blot (WB). Total protein content in cell lysates was determined using the bicinchoninic acid method. GFP and actin proteins were probed using monoclonal antibodies, and detected using ECL and Odyssey Imaging System (LI-COR). Data analysis was performed using ImageStudio Lite software (LI-COR). GFP band density was normalised to actin.
(In general: A western blot detects proteins with antibodies after separation by electrophoresis.)

For series [5], the system named is Primary NHP RPE cells. The series is described as follows: HCQ effect on AAV transduction in primary NHP RPE cells, GFP protein western blot. The class given is cell-based, Rhesus macaque (M. mullata). The settings on record: 18.75 μM HCQ. How it is done:
as §2, §3
Protein extraction. The flow through from RNA extraction above was combined with 4 volumes of acetone and incubated on ice for 30 min. Samples were centrifuged at 17,000×g for 30 min, the supernatant was discarded and the pellet washed in 100 μL of ice-cold ethanol. Pellets were resuspended in 1% SDS.
Western blot. Total protein content in cell lysates was determined using the bicinchoninic acid method. GFP and actin proteins were probed using monoclonal antibodies, and detected using ECL and Odyssey Imaging System (LI-COR). Data analysis was performed using ImageStudio Lite software (LI-COR). GFP band density was normalised to β-actin.

In series [6] the test system is Wildtype (WT) mouse embryonic fibroblasts (MEFs). The series is described as follows: HCQ effect on AAV (rAAV2.CAG.GFP.WPRE.pA) transduction in MEFs, flow cytometry GFP / 7-AAD. The class given is cell-based. How it is done: Cell culture. Wildtype (WT) mouse embryonic fibroblasts (MEFs) were seeded into 6-well plates. 24 hr after seeding the cells were incubated in culture media with HCQ concentrations of 3.125-50 uM for 1 hr prior to transduction with a rAAV2.CAG.GFP.WPRE.pA vector at a MOI of 1000. The cells were cultured in HCQ containing media until harvesting. Cells were imaged 3 days post-transduction (FIG. 1A).
Flow cytometry analysis. Cells were processed 3 days post-transduction and stained with the cell viability dye 7-AAD for 5 minutes prior to flow cytometry analysis. Fluorescent light was measured by a BD LSRFortessa flow cytometer using a blue laser with the bandpass filters 695 nm/[…] and 530 nm/[…] to detect the fluorochromes of 7-AAD and GFP, respectively (FIG. 1a).
A general note: In flow cytometry, cells or beads pass a laser one at a time.

With `O[C@H](c1cc(C(F)(F)F)nc2c(C(F)(F)F)cccc12)[C@@H]1CCCCN1` (single isomer, unassigned) [(+)-enantiomer], the “half-life compared with the other enantiomer” value in series [1] was “shorter”.

As for `CCN(CCO)CCCC(C)Nc1ccnc2cc(Cl)ccc12` (stereo not shown) [HCQ, 2-[{4-[(7-chloroquinolin-4-yl)amino]pentyl}(ethyl)amino]ethanol], the “increase in mean grey value of fundus AF images (surrogate measure of GFP expression) compared to control eyes injected with AAV only” value with retina of C57BL/6 mice [2] is 2 fold. For the same molecule, the “GFP mRNA expression, fold change to transduced cells incubated without HCQ” value in the series with Primary NHP RPE cells [3] is 3 fold. Further, in the series on retina of C57BL/6 mice [4], the “mean retinal thickness or retinal morphology, groups with and without HCQ” value is reported as “no significant difference”. For the same molecule, in the series with human retinal explants, the “increase in mean grey value (representative of GFP fluorescence) compared to no HCQ” value is “up to 2 fold”. The “GFP signal detected by WB compared to the 0 μM HCQ paired eye” value in the series on Mouse retinas is reported as “increase in the GFP signal”. For the same molecule, in the series on Primary NHP RPE cells [5] (3 days post-transduction (FIGS. 2a and 2b)), the “GFP protein expression increase compared to transduced cells incubated without HCQ” value was 19 fold. For the same molecule, the “GFP protein expression improvement by western blot” value with Primary NHP RPE cells [5] (N=2, GFP band density normalised to β-actin (FIG. 2c)) is given as “approximately 4 fold”. For the same molecule, the “HCQ concentration that induces cell death” value in series [6] (7-AAD viability dye, 3 days post-transduction) is at least 25 µM. In series [6] (HCQ 3.125-50 uM from 1 hr before transduction, rAAV2.CAG.GFP.WPRE.pA MOI 1000, 3 days post-transduction), the “number of GFP expressing cells” value is “increase the number of GFP expressing cells up to 18.75 uM”.
